Experimental data reported in ChEMBL document CHEMBL3421607, “Design, synthesis and antibacterial activity of cinnamaldehyde derivatives as inhibitors of the bacterial cell division protein FtsZ” (Eur J Med Chem, 2015).
Converted amounts (≈) assume the structure as drawn.

system: Streptococcus pyogenes; assay: Antibacterial activity against penicillin-susceptible Streptococcus pyogenes clinical isolates after 24 hrs by broth microdilution method; assay type: functional; conditions: not given

SMILES	MIC [µg/mL]
COc1ccc(/C=C/C(=O)Nc2cccnc2)cc1	> 128
CC(C)NC(=O)/C=C/c1ccc(Cl)cc1Cl [3-(2,4-DICHLOROPHENYL)-N-ISOPROPYLACRYLAMIDE]	64 (≈ 248 µM)
CCN(CC)C(=O)/C=C/c1ccc(Cl)cc1Cl	128 (≈ 470 µM)
Cc1nc2ccccc2n1C(=O)/C=C/c1ccccc1	128 (≈ 488 µM)
Cc1nccn1-c1cc(NC(=O)/C=C/c2ccc([N+](=O)[O-])cc2)cc(C(F)(F)F)c1	32 (≈ 76.9 µM)

system: Streptococcus pyogenes; assay: Antibacterial activity against penicillin-resistant Streptococcus pyogenes clinical isolates after 24 hrs by broth microdilution method; assay type: functional; conditions: not given

SMILES	MIC [µg/mL]
COc1ccc(/C=C/C(=O)Nc2cccnc2)cc1	128 (≈ 503 µM)
CC(C)NC(=O)/C=C/c1ccc(Cl)cc1Cl [3-(2,4-DICHLOROPHENYL)-N-ISOPROPYLACRYLAMIDE]	> 128
CCN(CC)C(=O)/C=C/c1ccc(Cl)cc1Cl	128 (≈ 470 µM)
Cc1nc2ccccc2n1C(=O)/C=C/c1ccccc1	128 (≈ 488 µM)
Cc1nccn1-c1cc(NC(=O)/C=C/c2ccc([N+](=O)[O-])cc2)cc(C(F)(F)F)c1	128 (≈ 307 µM)

system: Staphylococcus aureus; assay: Ratio of cinnamic acid MIC to compound MIC for penicillin-susceptible Staphylococcus aureus ATCC 25923; assay type: functional; conditions: not given

SMILES	Ratio
Cc1nc2ccccc2n1C(=O)/C=C/c1ccccc1	>512

system: Staphylococcus aureus; assay: microbe, parasite or virus in culture; assay type: functional; conditions: ATCC 29213, 24 h
Description: Antibacterial activity against methicillin-resistant Staphylococcus aureus ATCC 29213 after 24 hrs by broth microdilution method

SMILES	MIC [µg/mL]
COc1ccc(/C=C/C(=O)Nc2cccnc2)cc1	> 128
CC(C)NC(=O)/C=C/c1ccc(Cl)cc1Cl [3-(2,4-DICHLOROPHENYL)-N-ISOPROPYLACRYLAMIDE]	> 128
CCN(CC)C(=O)/C=C/c1ccc(Cl)cc1Cl	128 (≈ 470 µM)
Cc1nc2ccccc2n1C(=O)/C=C/c1ccccc1	> 128
Cc1nccn1-c1cc(NC(=O)/C=C/c2ccc([N+](=O)[O-])cc2)cc(C(F)(F)F)c1	> 128

system: Staphylococcus aureus; assay: Ratio of curcumin MIC to compound MIC for penicillin-susceptible Staphylococcus aureus ATCC 25923; assay type: functional; conditions: not given

SMILES	Ratio
Cc1nc2ccccc2n1C(=O)/C=C/c1ccccc1	>512

system: Staphylococcus aureus; assay: Antibacterial activity against penicillin-resistant Staphylococcus aureus clinical isolates after 24 hrs by broth microdilution method; assay type: functional; conditions: not given

SMILES	MIC [µg/mL]
COc1ccc(/C=C/C(=O)Nc2cccnc2)cc1	64 (≈ 252 µM)
CC(C)NC(=O)/C=C/c1ccc(Cl)cc1Cl [3-(2,4-DICHLOROPHENYL)-N-ISOPROPYLACRYLAMIDE]	> 128
CCN(CC)C(=O)/C=C/c1ccc(Cl)cc1Cl	> 128
Cc1nc2ccccc2n1C(=O)/C=C/c1ccccc1	64 (≈ 244 µM)
Cc1nccn1-c1cc(NC(=O)/C=C/c2ccc([N+](=O)[O-])cc2)cc(C(F)(F)F)c1	> 128

system: Staphylococcus aureus; assay: microbe, parasite or virus in culture; assay type: functional; conditions: ATCC 25923, 24 h
Description: Antibacterial activity against penicillin-susceptible Staphylococcus aureus ATCC 25923 after 24 hrs by broth microdilution method

SMILES	MIC [µg/mL]
COc1ccc(/C=C/C(=O)Nc2cccnc2)cc1	32 (≈ 126 µM)
CC(C)NC(=O)/C=C/c1ccc(Cl)cc1Cl [3-(2,4-DICHLOROPHENYL)-N-ISOPROPYLACRYLAMIDE]	> 128
CCN(CC)C(=O)/C=C/c1ccc(Cl)cc1Cl	> 128
Cc1nc2ccccc2n1C(=O)/C=C/c1ccccc1	4 (≈ 15.2 µM)
Cc1nccn1-c1cc(NC(=O)/C=C/c2ccc([N+](=O)[O-])cc2)cc(C(F)(F)F)c1	128 (≈ 307 µM)

system: Bacillus subtilis; assay: microbe, parasite or virus in culture; assay type: functional; conditions: ATCC 9372, 24 h
Description: Antibacterial activity against penicillin-susceptible Bacillus subtilis ATCC 9372 after 24 hrs by broth microdilution method

SMILES	MIC [µg/mL]
COc1ccc(/C=C/C(=O)Nc2cccnc2)cc1	128 (≈ 503 µM)
CC(C)NC(=O)/C=C/c1ccc(Cl)cc1Cl [3-(2,4-DICHLOROPHENYL)-N-ISOPROPYLACRYLAMIDE]	> 128
CCN(CC)C(=O)/C=C/c1ccc(Cl)cc1Cl	> 128
Cc1nc2ccccc2n1C(=O)/C=C/c1ccccc1	128 (≈ 488 µM)
Cc1nccn1-c1cc(NC(=O)/C=C/c2ccc([N+](=O)[O-])cc2)cc(C(F)(F)F)c1	128 (≈ 307 µM)

system: Escherichia coli; assay: microbe, parasite or virus in culture; assay type: functional; conditions: ATCC 25922, 5 h
Description: Inhibition of cell division in penicillin-susceptible Escherichia coli ATCC 25922 assessed as filamentation after 5 hrs by phase contrast microscopy

SMILES	MIC [µg/mL]
COc1ccc(/C=C/C(=O)Nc2cccnc2)cc1	128 (≈ 503 µM)
CC(C)NC(=O)/C=C/c1ccc(Cl)cc1Cl [3-(2,4-DICHLOROPHENYL)-N-ISOPROPYLACRYLAMIDE]	> 128
CCN(CC)C(=O)/C=C/c1ccc(Cl)cc1Cl	> 128
Cc1nc2ccccc2n1C(=O)/C=C/c1ccccc1	> 128
Cc1nccn1-c1cc(NC(=O)/C=C/c2ccc([N+](=O)[O-])cc2)cc(C(F)(F)F)c1	> 128

system: Escherichia coli; assay: microbe, parasite or virus in culture; assay type: functional; conditions: ATCC 25922, 24 h
Description: Antibacterial activity against penicillin-susceptible Escherichia coli ATCC 25922 after 24 hrs by broth microdilution method

SMILES	MIC [µg/mL]
COc1ccc(/C=C/C(=O)Nc2cccnc2)cc1	128 (≈ 503 µM)
CC(C)NC(=O)/C=C/c1ccc(Cl)cc1Cl [3-(2,4-DICHLOROPHENYL)-N-ISOPROPYLACRYLAMIDE]	128 (≈ 496 µM)
CCN(CC)C(=O)/C=C/c1ccc(Cl)cc1Cl	> 128
Cc1nc2ccccc2n1C(=O)/C=C/c1ccccc1	128 (≈ 488 µM)
Cc1nccn1-c1cc(NC(=O)/C=C/c2ccc([N+](=O)[O-])cc2)cc(C(F)(F)F)c1	> 128

system: Bacillus subtilis; assay: microbe, parasite or virus in culture; assay type: functional; conditions: ATCC 9372, 5 h
Description: Inhibition of cell division in penicillin-susceptible Bacillus subtilis ATCC 9372 assessed as filamentation after 5 hrs by phase contrast microscopy

SMILES	MIC [µg/mL]
COc1ccc(/C=C/C(=O)Nc2cccnc2)cc1	> 128
CC(C)NC(=O)/C=C/c1ccc(Cl)cc1Cl [3-(2,4-DICHLOROPHENYL)-N-ISOPROPYLACRYLAMIDE]	32 (≈ 124 µM)
CCN(CC)C(=O)/C=C/c1ccc(Cl)cc1Cl	> 128
Cc1nc2ccccc2n1C(=O)/C=C/c1ccccc1	> 128
Cc1nccn1-c1cc(NC(=O)/C=C/c2ccc([N+](=O)[O-])cc2)cc(C(F)(F)F)c1	128 (≈ 307 µM)

system: Pseudomonas aeruginosa; assay: microbe, parasite or virus in culture; assay type: functional; conditions: ATCC 27853, 24 h
Description: Antibacterial activity against penicillin-susceptible Pseudomonas aeruginosa ATCC 27853 after 24 hrs by broth microdilution method

SMILES	MIC [µg/mL]
COc1ccc(/C=C/C(=O)Nc2cccnc2)cc1	128 (≈ 503 µM)
CC(C)NC(=O)/C=C/c1ccc(Cl)cc1Cl [3-(2,4-DICHLOROPHENYL)-N-ISOPROPYLACRYLAMIDE]	128 (≈ 496 µM)
CCN(CC)C(=O)/C=C/c1ccc(Cl)cc1Cl	128 (≈ 470 µM)
Cc1nc2ccccc2n1C(=O)/C=C/c1ccccc1	128 (≈ 488 µM)
Cc1nccn1-c1cc(NC(=O)/C=C/c2ccc([N+](=O)[O-])cc2)cc(C(F)(F)F)c1	> 128

system: Pseudomonas aeruginosa; assay: microbe, parasite or virus in culture; assay type: functional; conditions: ATCC 27853, 5 h
Description: Inhibition of cell division in penicillin-susceptible Pseudomonas aeruginosa ATCC 27853 assessed as filamentation after 5 hrs by phase contrast microscopy

SMILES	MIC [µg/mL]
COc1ccc(/C=C/C(=O)Nc2cccnc2)cc1	128 (≈ 503 µM)
CC(C)NC(=O)/C=C/c1ccc(Cl)cc1Cl [3-(2,4-DICHLOROPHENYL)-N-ISOPROPYLACRYLAMIDE]	> 128
CCN(CC)C(=O)/C=C/c1ccc(Cl)cc1Cl	> 128
Cc1nc2ccccc2n1C(=O)/C=C/c1ccccc1	> 128
Cc1nccn1-c1cc(NC(=O)/C=C/c2ccc([N+](=O)[O-])cc2)cc(C(F)(F)F)c1	128 (≈ 307 µM)

system: Staphylococcus aureus; assay: microbe, parasite or virus in culture; assay type: functional; conditions: ATCC 25923, 5 h
Description: Inhibition of cell division in penicillin-susceptible Staphylococcus aureus ATCC 25923 assessed as ballooning after 5 hrs by phase contrast microscopy

SMILES	MIC [µg/mL]
COc1ccc(/C=C/C(=O)Nc2cccnc2)cc1	4 (≈ 15.7 µM)
CC(C)NC(=O)/C=C/c1ccc(Cl)cc1Cl [3-(2,4-DICHLOROPHENYL)-N-ISOPROPYLACRYLAMIDE]	32 (≈ 124 µM)
CCN(CC)C(=O)/C=C/c1ccc(Cl)cc1Cl	128 (≈ 470 µM)
Cc1nc2ccccc2n1C(=O)/C=C/c1ccccc1	0.25 (≈ 0.953 µM)
Cc1nccn1-c1cc(NC(=O)/C=C/c2ccc([N+](=O)[O-])cc2)cc(C(F)(F)F)c1	32 (≈ 76.9 µM)

system: Staphylococcus epidermidis; assay: Antibacterial activity against penicillin-resistant Staphylococcus epidermidis clinical isolates after 24 hrs by broth microdilution method; assay type: functional; conditions: not given

SMILES	MIC [µg/mL]
COc1ccc(/C=C/C(=O)Nc2cccnc2)cc1	128 (≈ 503 µM)
CC(C)NC(=O)/C=C/c1ccc(Cl)cc1Cl [3-(2,4-DICHLOROPHENYL)-N-ISOPROPYLACRYLAMIDE]	> 128
CCN(CC)C(=O)/C=C/c1ccc(Cl)cc1Cl	32 (≈ 118 µM)
Cc1nc2ccccc2n1C(=O)/C=C/c1ccccc1	32 (≈ 122 µM)
Cc1nccn1-c1cc(NC(=O)/C=C/c2ccc([N+](=O)[O-])cc2)cc(C(F)(F)F)c1	> 128

system: Staphylococcus aureus; assay: Ratio of ciprofloxacin MIC to compound MIC for penicillin-susceptible Staphylococcus aureus ATCC 25923; assay type: functional; conditions: not given

SMILES	Ratio
Cc1nc2ccccc2n1C(=O)/C=C/c1ccccc1	>512
